# Read-outs that look alike come from different tables or passages of the source.
# Columns and labels:
# patients with HD [1] = settings: cited from earlier work
# patients with HD [2] = settings: 26 weeks; 67.5 mg, 90 mg and 112.5 mg bid
# Excerpt: The Modified Physical Performance Test (mPPT) is used instead of the Physical Performance Test (PPT). The Walk-12 scale in used instead of the Multiple Sclerosis Walking Scale (MSWS).
# patients with HD [3] = settings: 26 weeks; 67.5 mg, 90 mg and 112.5 mg bid; remark: listed apart in the source
# Excerpt: The model includes the following fixed effects: categorical week in study by treatment interaction, center, neuroleptic use or no use, and baseline UHDRS-TMS score. The unstructured covariance matrix for repeated observations within patients is used.
# patients with HD [4] = settings: 12 weeks; 67.5 mg, 90 mg and 112.5 mg bid
# Description: The primary efficacy variable and endpoint for this study is change from baseline in the UHDRS-TMS (defined as the sum of all UHDRS motor domains ratings) at Week 12.
# The change from baseline in TMS is analyzed using a Repeated Measures model (SAS® MIXED procedure with REPEATED sub-command). The model includes the following fixed effects: categorical week in trial by treatment interaction, center, neuroleptic use or no use and baseline TMS score. The unstructured covariance matrix for repeated observations within patients is used.
# patients with HD [5] = test system: patients with HD
# Description: Study ACR16C007 explored the efficacy of 44 mg pridopidine once daily (qd) in 58 patients.
smiles,measurement,setting,value
COc1cc2c(cc1OC)C1CC(=O)C(CC(C)C)CN1CC2 (stereo not drawn) [tetrabenazine],effect on motor components other than chorea,patients with HD [1]; in vivo,no significant effect
same,improvement on the UHDRS-TMS,"patients with HD [1]; p=0.075, 45 to 47 points at baseline",3.3 points
"CCCN1CCC(c2cccc(S(C)(=O)=O)c2)CC1 [pridopidine, 4-[3-(methylsulfonyl)phenyl]-1-propyl-piperidine]",changes from baseline in UHDRS-TMS,patients with HD [2],Statistically significant changes
same,changes from baseline in UHDRS-TMS,patients with HD [3],Statistically significant changes
same,changes from baseline in TMS,patients with HD [4],Statistically significant changes
same,effect on mMS,"patients with HD [5]; 45 mg bid, HART and MermaiHD",did not reach the pre-specified significance criteria
same,improvement in UHDRS-TMS relative to placebo,"patients with HD [5]; 45 mg bid, MermaiHD and HART",approximately 3 points
same,findings on the TMS,patients with HD [5]; HART and MermaiHD,statistically significant findings
same,efficacy in treating motor symptoms in HD (mMS and TMS),"patients with HD [5]; HART study, 10, 22.5 and 45 mg bid, 12 weeks",dose-dependent efficacy

# Reference: patent US12390456B2, “Pridopidine for treating Huntington's disease” (PRILENIA NEUROTHERAPEUTICS LTD., priority 2013, dated 2025)
